Reference: patent publication US20100040598A1, “KIT OF PARTS COMPRISING AN ACID LABILE AND AN ACID RESISTANT PHARMACEUTICALLY ACTIVE INGREDIENT” (priority 2006, published 2010)
Where two headings read alike, the source gives them in different places. Each block holds one compound with its values, some of them ahead of it.

Experiments:
[1] = Influence of food intake on absorption of clavulanic acid and amoxicillin (plasma pharmacokinetics after test tablet, Comparative Example A); format: in vivo, human; conditions: for AUC(0-inf) / Cmax / Tmax: human, plasma, oral, one test tablet
Method: An exploratory study involving 9 healthy volunteers receive the test product under fasted and fed conditions. The test product is AUGMENTIN™ XR as commercially available by Glaxosmithkline, and is an extended release tablet containing 1000 mg amoxicillin and 62.5 mg clavulanic acid wherein said tablet consists of a fast release layer comprising 562.5 mg as amoxicillin trihydrate and 62.5 mg clavulanic acid as clavulanate potassium salt, and of an extended release layer containing 437.5 mg amoxicillin as amoxicillin sodium salt. The test tablets are magnetically marked as described in Comparative Example B. The volunteers receive one test tablet together with 240 ml of non-carbonated water under the following conditions:
a) under fasting conditions: on one study day after a fasting period of at least 8 hours, b) at the beginning of a meal: on another study day after the first bite of a high […] standardized breakfast A, and c) under fed conditions: on still another study day 30 minutes after a high fat standardized breakfast B.
The standardized breakfast A consists of 2 slices of bread, 40 g cheese, 150 ml orange juice, 150 ml milk, and 20 g of cereals. The standardized breakfast B consists of 2 eggs fried in butter, 2 strips of bacon, 2 slices of toast with butter, 120 ml of hash brown potatoes and 240 ml of whole milk (3.5% fat).
(§1) Blood samples are taken before and 0.5, 1, 1.5, 2, 2.5, 3, 3.5, 4, 4.5, 5, 5.5, 6, 6.5, 7, 7.5, 8, 8.5, 9, 9.5, 10 and 12 hours after ingestion of the test tablet. Blood samples are centrifuged and stored at −80° C. Concentrations of both amoxicillin and clavulanic acid are determined according to known methods using a LC-MS/MS procedure (HPLC coupled Online with MS). Pharmacokinetic parameters are expressed as Cmax (maximal plasma concentration), AUC0→∞ (area under the plasma concentration-time curve extrapolated to infinity) and tmax (time of peak plasma concentration). Cmax and tmax as figuring in Tables 1 and 2 are determined from the 9 single values directly taken from the plasma-concentration-time curve. AUC0→tlast is calculated as follows: AUC0→∞=AUC0→tlast+AUCtlast→∞ wherein AUC0→tlast is the area under the plasma concentration-time curve from time of administration until time of last quantifiable concentration measured, i.e. Ct, and is calculated by using the linear trapezoid rule. AUCtlast→∞ is the extrapolated area to infinity that equals to Ct/Kel wherein Kel is the elimination rate constant. The results are reported using descriptive statistics.
Tables 1 and 2 show the pharmacokinetic parameters of clavulanic acid and amoxicillin, respectively, determined in human plasma from the blood samples taken after administration of one test tablet under fasting or fed conditions or at the beginning of a meal (values are mean values of 9 volunteers).

[2] = Crossover bioavailability study of tablet B before and tablet A after food intake vs both after food intake (Example 3); format: in vivo, human; conditions: data not shown
Method: In this study 20 subjects are randomized in balanced manner into 2 sequences. The subjects in the sequence 1 obtain tablet B under fasting conditions and then tablet A 30 minutes after beginning of food intake whereas the subjects in the second sequence are dosed with both tablets (A and B) 30 minutes after beginning of food intake. The extended release tablet A contains 1125 mg amoxicillin whereas tablet B is an immediate release formulation comprising 875 mg as amoxicillin trihydrate and 125 mg clavulanic acid as clavulanate potassium salt. The volunteers receive […] of non-carbonated water to each tablet administered.
The standardized breakfast (before or between the dosing) consists of 2 eggs fried in butter, 2 strips of bacon, 2 slices of toast with butter, 120 ml of hash brown potatoes and 240 ml of whole milk (3.5% fat).
as §1, with “plasma concentration) and” for “plasma concentration),”, “infinity) which” for “infinity) and tmax (time of peak plasma concentration). Cmax and tmax as figuring in Tables 1 and 2”, “determined analogously as described above in comparative example A. Cmax is” for “determined from the 9 single values”, “curve. AUC0→∞” for “curve. AUC0→tlast”, “constant.” for “constant. The results are reported using descriptive statistics.”

[3] = More extensive study involving 70 volunteers with conventional test tablet without magnetic markers; format: in vivo, human; conditions: test tablet at the beginning of a meal, data not shown
Method: If a conventional combination of an acid labile active ingredient such as clavulanic acid and of an acid resistant active ingredient such as amoxicillin is administered according to a conventional scheme, namely both active ingredients simultaneously, concomitant food intake seems to strongly influence the plasma concentrations and thus bioavailability of the 2 active ingredients. This has been observed in the herein described exploratory study for a conventional combination in the form of a bilayer tablet comprising clavulanic acid for immediate release and amoxicillin for both immediate and extended release such as the herein described test tablet.

[4] = co-administered e.g. with sodium bicarbonate; compared to fasting; cited from earlier work

- AUC of amoxicillin ([1]; fasting conditions compared with fed conditions): significantly reduced
- Plasma concentrations of amoxicillin (FIG. 2): absorption ([1]; fed conditions compared with fasting conditions): delayed absorption
- tmax of amoxicillin ([1]; fed conditions compared with fasting or beginning of a meal): significantly delayed
- AUC(0-inf) ([1]; amoxicillin in human plasma, at the beginning of a meal, read-out: AUC0→∞, mean value ± s (converted)): 40900 ng·h/mL
- AUC(0-inf) ([1]; amoxicillin in human plasma, at the beginning of a meal, read-out: AUC0→∞, median (converted)): 39100 ng·h/mL
- Cmax ([1]; amoxicillin in human plasma, at the beginning of a meal, read-out: Cmax, mean value ± s): 10400 ± 2000 ng/mL
- Cmax ([1]; amoxicillin in human plasma, at the beginning of a meal, read-out: Cmax, median): 9870 ng/mL
- Tmax ([1]; amoxicillin in human plasma, at the beginning of a meal, read-out: tmax, mean value ± s (converted)): ~1.38 h
- Tmax ([1]; amoxicillin in human plasma, at the beginning of a meal, read-out: tmax, median (converted)): 1 h
- AUC(0-inf) ([1]; amoxicillin in human plasma, fasting conditions, 9 volunteers, read-out: AUC0→∞, mean value ± s (converted)): 30900 ng·h/mL
- AUC(0-inf) ([1]; amoxicillin in human plasma, fasting conditions, read-out: AUC0→∞, median (converted)): 29000 ng·h/mL
- Cmax ([1]; amoxicillin in human plasma, fasting conditions, read-out: Cmax, mean value ± s): 10300 ± 1200 ng/mL
- Cmax ([1]; amoxicillin in human plasma, fasting conditions, read-out: Cmax, median): 10300 ng/mL
- Tmax ([1]; amoxicillin in human plasma, fasting conditions, read-out: tmax, mean value ± s (converted)): ~1.5 h
- Tmax ([1]; amoxicillin in human plasma, fasting conditions, read-out: tmax, median (converted)): 1.5 h
- AUC(0-inf) ([1]; amoxicillin in human plasma, fed conditions (30 minutes after high fat breakfast), read-out: AUC0→∞, mean value ± s (converted)): 43400 ng·h/mL
- AUC(0-inf) ([1]; amoxicillin in human plasma, fed conditions, read-out: AUC0→∞, median (converted)): 42100 ng·h/mL
- Cmax ([1]; amoxicillin in human plasma, fed conditions, read-out: Cmax, mean value ± s): 9880 ± 2300 ng/mL
- Cmax ([1]; amoxicillin in human plasma, fed conditions, read-out: Cmax, median): 9830 ng/mL
- Tmax ([1]; amoxicillin in human plasma, fed conditions, read-out: tmax, mean value ± s (converted)): 2.28 h
- Tmax ([1]; amoxicillin in human plasma, fed conditions, read-out: tmax, median (converted)): 1.5 h
- Maximum plasma concentrations Cmax of amoxicillin ([1]; test tablet after food intake compared with fasting): slightly lower
- Plasma level of amoxicillin (duration) ([2]; condition a) vs condition b)): slightly prolonged
SMILES: CC1(C)S[C@@H]2[C@H](NC(=O)[C@H](N)c3ccc(O)cc3)C(=O)N2[C@H]1C(=O)O [amoxicillin]
- AUC of amoxicillin ([1]; at the beginning of a meal compared with fasting and fed state): lies in between that observed for the fasting and for the fed state
- Initial maximum plasma concentrations Cmax of amoxicillin ([2]; condition a) vs condition b)): higher initial maximum plasma concentrations

- Cmax and AUC of clavulanic acid ([1]; fed state compared with fasting conditions): significantly reduced
- AUC(0-inf) ([1]; clavulanic acid in human plasma, at the beginning of a meal, read-out: AUC0→∞, mean value ± s (converted)): 3280 ng·h/mL
- AUC(0-inf) ([1]; clavulanic acid in human plasma, at the beginning of a meal, read-out: AUC0→∞, median (converted)): 2880 ng·h/mL
- Cmax ([1]; clavulanic acid in human plasma, at the beginning of a meal, read-out: Cmax, mean value ± s): 1390 ± 400 ng/mL
- Cmax ([1]; clavulanic acid in human plasma, at the beginning of a meal, read-out: Cmax, median): 1240 ng/mL
- Tmax ([1]; clavulanic acid in human plasma, at the beginning of a meal, read-out: tmax, mean value ± s (converted)): 1.38 h
- Tmax ([1]; clavulanic acid in human plasma, at the beginning of a meal, read-out: tmax, median (converted)): 1.5 h
- AUC(0-inf) ([1]; clavulanic acid in human plasma, fasting conditions, 9 volunteers, read-out: AUC0→∞, mean value ± s (converted)): 3300 ng·h/mL
- Cmax ([1]; clavulanic acid in human plasma, fasting conditions, 9 volunteers, read-out: Cmax, mean value ± s): 1400 ± 400 ng/mL
- Tmax ([1]; clavulanic acid in human plasma, fasting conditions, 9 volunteers, read-out: tmax, mean value ± s (converted)): ~1.5 h
- AUC(0-inf) ([1]; clavulanic acid in human plasma, fasting conditions, read-out: AUC0→∞, median (converted)): 3020 ng·h/mL
- Cmax ([1]; clavulanic acid in human plasma, fasting conditions, read-out: Cmax, median): 1350 ng/mL
- Tmax ([1]; clavulanic acid in human plasma, fasting conditions, read-out: tmax, median (converted)): 1.5 h
- AUC(0-inf) ([1]; clavulanic acid in human plasma, fed conditions (30 minutes after high fat breakfast), read-out: AUC0→∞, mean value ± s (converted)): 2200 ng·h/mL
- AUC(0-inf) ([1]; clavulanic acid in human plasma, fed conditions, read-out: AUC0→∞, median (converted)): 2080 ng·h/mL
- Cmax ([1]; clavulanic acid in human plasma, fed conditions, read-out: Cmax, mean value ± s): 970 ± 600 ng/mL
- Cmax ([1]; clavulanic acid in human plasma, fed conditions, read-out: Cmax, median): 830 ng/mL
- Tmax ([1]; clavulanic acid in human plasma, fed conditions, read-out: tmax, mean value ± s (converted)): 2.07 h
- Tmax ([1]; clavulanic acid in human plasma, fed conditions, read-out: tmax, median (converted)): 2 h
- Plasma concentrations of clavulanic acid (FIG. 1) ([1]; test tablet taken after a meal (breakfast B) compared with fasting): significantly reduced
- Plasma concentrations of clavulanic acid ([2]; condition a) tablet B fasting, tablet A 30 minutes after beginning of food intake, vs b) both tablets 30 minutes after beginning of food intake): significantly higher
- Cmax and AUC0→∞ of clavulanic acid ([2]; condition a) vs condition b)): significantly higher
- Bioavailability of clavulanic acid [3]: slightly decreased
SMILES: O=C(O)[C@H]1/C(=C/CO)O[C@@H]2CC(=O)N21 [clavulanic acid]

SMILES: COc1ccc2[nH]c([S+]([O-])Cc3ncc(C)c(OC)c3C)nc2c1 (stereo not shown) [omeprazole]
- Bioavailability, effect of food ingestion [4]: reduces bioavailability
